From ChEMBL document CHEMBL1201862, “PubChem BioAssay data set” (2004)
The source made the active and inactive calls. Rule as the data show it: actives have a measured IC50 and inactives only a lower limit.

Molecular target: Envelope glycoprotein gp160 (Human immunodeficiency virus 1, UniProt Q6QLK5)
Experiment: inhibitors of HIV fusion peptide binding, primary screen, biochemical, uHTS, fluorescence dequenching (AID 1986)

Chain of Envelope glycoprotein gp160 (Q6QLK5 whole entry, the tested form may be a part): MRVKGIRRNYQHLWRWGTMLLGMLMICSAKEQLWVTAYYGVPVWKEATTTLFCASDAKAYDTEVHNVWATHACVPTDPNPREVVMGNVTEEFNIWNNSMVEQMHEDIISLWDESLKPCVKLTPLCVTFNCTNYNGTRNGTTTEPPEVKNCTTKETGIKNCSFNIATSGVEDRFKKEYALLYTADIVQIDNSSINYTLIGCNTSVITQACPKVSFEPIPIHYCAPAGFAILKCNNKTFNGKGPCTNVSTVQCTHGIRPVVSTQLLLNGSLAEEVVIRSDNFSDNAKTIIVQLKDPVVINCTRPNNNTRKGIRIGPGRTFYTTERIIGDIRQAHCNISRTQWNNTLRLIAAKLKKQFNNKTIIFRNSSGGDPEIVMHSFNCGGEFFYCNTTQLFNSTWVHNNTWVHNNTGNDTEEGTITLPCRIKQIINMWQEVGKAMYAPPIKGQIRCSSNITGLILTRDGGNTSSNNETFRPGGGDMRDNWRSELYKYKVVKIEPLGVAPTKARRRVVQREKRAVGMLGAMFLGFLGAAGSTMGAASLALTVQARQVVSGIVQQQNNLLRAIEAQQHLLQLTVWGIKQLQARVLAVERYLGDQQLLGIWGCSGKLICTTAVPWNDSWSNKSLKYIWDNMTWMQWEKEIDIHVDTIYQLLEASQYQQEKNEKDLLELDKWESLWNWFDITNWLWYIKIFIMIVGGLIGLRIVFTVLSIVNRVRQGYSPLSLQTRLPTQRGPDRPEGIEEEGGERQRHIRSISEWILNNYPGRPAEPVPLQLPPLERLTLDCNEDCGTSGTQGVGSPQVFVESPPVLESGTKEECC

## COc1cc(/C=C(\C#N)c2nc3ccccc3s2)cc([N+](=O)[O-])c1O
  IC50: 8.88 µM (active)
